Test results from the NIST ThermoML archive (doi:10.1021/je300382a).
± gives the expanded uncertainty stated by the source.

Test: xn = mol fraction of the nth substance listed
Conditions: Ring tensiometer

NCc1ccccc1 [benzylamine] + O
surface tension liquid-gas [mN/m]
Conditions	283.15 K	293.15 K	303.15 K	313.15 K	323.15 K
x1 = 0.0001	69.5 ± 1.1	67.7 ± 1.6	65.5 ± 1.5	63.2 ± 1.6	61.6 ± 1.1
x1 = 0.0005	60.4 ± 2.5	58.1 ± 4.2	56.1 ± 4.2	54.3 ± 4.2	52.3 ± 2.5
x1 = 0.001	54.9 ± 3.2	53.1 ± 4.8	50.6 ± 4.6	48.8 ± 4.5	47.2 ± 3.6
x1 = 0.003	48.6 ± 8.6	46.1 ± 8.5	44.3 ± 8.5	42.6 ± 8.4	40.1 ± 8.4
x1 = 0.006	42.1 ± 1.7	40.7 ± 1.4	39.2 ± 1.3	37.7 ± 1.2	36.4 ± 1
x1 = 0.01	41.4 ± 0.6	40 ± 0.6	38.6 ± 0.6	37.5 ± 0.5	36 ± 0.5
x1 = 0.03	39.5 ± 0.5	38.4 ± 0.5	37.5 ± 0.5	36.3 ± 0.5	35.6 ± 0.5
x1 = 0.05	39.3 ± 0.5	38.3 ± 0.5	37.5 ± 0.5	36.3 ± 0.5	35.5 ± 0.5
x1 = 0.07	38.9 ± 0.5	38.1 ± 0.5	37.3 ± 0.5	36.2 ± 0.5	35.5 ± 0.5
x1 = 0.1	38.7 ± 0.5	38 ± 0.5	37.2 ± 0.5	36.2 ± 0.5	35.4 ± 0.5
x1 = 0.2	38.6 ± 0.5	37.8 ± 0.5	37 ± 0.5	36.1 ± 0.5	35.4 ± 0.5
x1 = 0.3	38.4 ± 0.5	37.5 ± 0.5	36.9 ± 0.5	35.9 ± 0.5	35.2 ± 0.5
x1 = 0.4	38.4 ± 0.5	37.5 ± 0.5	36.9 ± 0.5	35.9 ± 0.5	35.2 ± 0.5
x1 = 0.5	38.3 ± 0.5	37.6 ± 0.5	36.8 ± 0.5	35.9 ± 0.5	35.2 ± 0.5
x1 = 0.6	38.2 ± 0.5	37.4 ± 0.5	36.6 ± 0.5	35.7 ± 0.5	35.2 ± 0.5
x1 = 0.7	38.1 ± 0.5	37.3 ± 0.5	36.5 ± 0.5	35.8 ± 0.5	35.1 ± 0.5
x1 = 0.8	38.1 ± 0.5	37.3 ± 0.5	36.5 ± 0.5	35.8 ± 0.5	35.1 ± 0.5
x1 = 0.9	38 ± 0.5	37.2 ± 0.5	36.4 ± 0.5	35.7 ± 0.5	35.1 ± 0.5
x1 = 1	37.9 ± 0.6	37.1 ± 0.5	36.3 ± 0.5	35.6 ± 0.5	35 ± 1
